# Like-named read-outs stand apart in the source and are kept apart here.
# Columns and labels:
# [1] = human, in vivo, iv
# [2] = tested on: different human tumors, including MM; conditions: at seemingly comparable toxicity; cited from earlier work
# [3] = tested on: MM cell lines resistant to dexamethasone, bortezomib and melphalan; conditions: in vitro; cited from earlier work
# [4] = tested on: relapsed-refractory multiple myeloma (RRMM) patients; assay: Efficacy in patients with RRMM, Example 2a; assay type: in vivo, human
# Procedure: Example 2: An open label single arm extension on the dose of 40 mg over 30 minutes of Example 1. Intravenous melflufen was administered over 30 minutes on Day 1 of a 21-day cycle or 28-day cycle (in combination with 40 mg dexamethasone (oral or intravenous) treatment on Days 1, 8 and 15) for at least 2 cycles, and up to the stated number of cycles. The cycle length was extended during the Example 2 Clinical Trial from 21 to 28 days per a protocol amendment to allow for a better recovery of neutrophils and thrombocytes before a new cycle is initiated.
# Example 2a results are from a data cut-off of time point (a). Example 2b results are from a data cut-off of time point (bi) for the efficacy data, which was approximately 12 months after time point (a); and from a data cut-off of time point (bii) for the safety data, which was approximately 10 months after time point (a).
# By the data cut-off point for Example 2a, 38 patients with relapsing MM had been dosed with 40 mg of melflufen hydrochloride (the 40 mg dosage excludes the mass of the salt component) administered over 30 minutes every 3 weeks (21 days) in combination with weekly dexamethasone (day 1, 8 and 15). 162 doses of melflufen were administered in total. The median number of cycles initiated was 3 (1-13) and the median duration of treatment was 13 weeks (2-51). The mean dose intensity was 96% (77-100). By the data cut-off point, ten patients were still in treatment, 2 had completed treatment and 26 patients discontinued from treatment (15 due to AEs, 8 due to PD, 2 deaths and 1 for other reasons). Twenty-seven patients were still in the study (10 patients in treatment and 17 in follow-up), while 11 patients were off study (8 patients due to death, 1 due to PD, 1 withdrew consent and 1 lost in follow-up).
# Twenty-seven patients were evaluable for efficacy (per the protocol, these patients had received at least two cycles of melflufen and had adequate follow-up assessments). 11 patients were not evaluable for response due to rapid early progression (7), early termination due to adverse events (3) or too early to assess (1).
# [5] = tested on: relapsed-refractory multiple myeloma (RRMM) patients; assay: Efficacy in patients with RRMM, Example 2a; assay type: in vivo, human; conditions: Evaluable ≥ 1 cycle, n 35
# [6] = Evaluable ≥ 2 cycles, n 27, listed as Melflufen
# [7] = Number of refractory agents 0, Example 2a (n = 27)
# [8] = Number of refractory agents 1, Example 2a (n = 27)
# [9] = Number of refractory agents 2, Example 2a (n = 27)
# [10] = Number of refractory agents 3, Example 2a (n = 27)
# [11] = Number of refractory agents 4, Example 2a (n = 27)
# [12] = Pomalidomide refractory, Example 2a, 27 evaluable
# [13] = refractory status None, Example 2a, 27 evaluable
# [14] = refractory status PI + IMiD + Alkylator, Example 2a, 27 evaluable
smiles,measurement,setting,value
"CCOC(=O)[C@H](Cc1ccc(F)cc1)NC(=O)[C@@H](N)Cc1ccc(N(CCCl)CCCl)cc1.Cl [melflufen, L-Melphalanyl-4-fluoro-L-phenylalanine ethyl ester]",time after end of infusion within which melflufen is no longer measurable,[1],≤ 15 min
same,tmax,[1]; 25 mg,15 min
same,tmax,[1]; 40 mg,25 min
same,antitumor activity over equimolar dosage of melphalan,[2],superior antitumor activity
same,cytotoxic activities in resistant MM cell lines,[3],"concentrations similar to those observed in the parenteral, non-resistant cell lines"
same,Clinical Benefit Rate (CBR),"[4]; Evaluable ≥ 1 cycle, n 35",43%
same,"Minimal Response (MR), patients","[4]; Evaluable ≥ 1 cycle, n 35",4
same,Overall Response Rate (ORR),"[4]; Evaluable ≥ 1 cycle, n 35",31%
same,"Stable Disease (SD), patients","[4]; Evaluable ≥ 1 cycle, n 35",12
same,"Very Good Positive Response (PR), patients","[4]; Evaluable ≥ 1 cycle, n 35",2
same,Clinical Benefit Rate (CBR),"[4]; Evaluable ≥ 2 cycles, n 27",56%
same,"Minimal Response (MR), patients","[4]; Evaluable ≥ 2 cycles, n 27",4
same,Overall Response Rate (ORR),"[4]; Evaluable ≥ 2 cycles, n 27",41%
same,"Positive Response (PR), patients","[4]; Evaluable ≥ 2 cycles, n 27",9
same,"Progressive Disease (PD), patients","[4]; Evaluable ≥ 2 cycles, n 27",1
same,"Stable Disease (SD), patients","[4]; Evaluable ≥ 2 cycles, n 27",11
same,"Very Good Positive Response (PR), patients","[4]; Evaluable ≥ 2 cycles, n 27, 40 mg over 30 min + dexamethasone",2
same,Clinical Benefit Rate (CBR),[4]; [6],56%
same,Overall Response Rate (ORR),[4]; [6],41%
same,median duration of response (DOR),"[4]; Example 2a, 4 events in 11 responding patients",9.6 months
same,median progression free survival (PFS),"[4]; Example 2a, 13 events in 27 patients",9.4 months
same,hazard ratio for melflufen compared to pomalidomide (PFS),"[4]; Example 2a, all treated n=38 vs published pomalidomide trial",0.68 (0.44-1.05)
same,CBR(≥MR),[4]; [7],(100) %
same,ORR (≥PR),[4]; [7],(100) %
same,CBR(≥MR),[4]; [8],(54) %
same,ORR (≥PR),[4]; [8],(38) %
same,CBR(≥MR),[4]; [9],(57) %
same,ORR (≥PR),[4]; [9],(43) %
same,CBR(≥MR),[4]; [10],(63) %
same,ORR (≥PR),[4]; [10],(44) %
same,CBR(≥MR),[4]; [11],(71) %
same,ORR (≥PR),[4]; [11],(43) %
same,CRR (≥MR),[4]; [12],(50) %
same,ORR (≥PR),[4]; [12],(30) %
same,reduction in risk of death over 16 months compared to pomalidomide,"[4]; RRMM patient population, Example 2a",32%
same,CRR (≥MR),"[4]; Triple refractory (2 PI/ImiD + 1 ImiD/PI), Example 2a, 27 evaluable",(60) %
same,"best response of minimal response (MR) or better, n patients",[4]; of 27 evaluable,15
same,"confirmed PR, n patients",[4]; of 27 evaluable,11
same,CRR (≥MR),"[4]; refractory status Alkylator, Example 2a, 27 evaluable",(64) %
same,CRR (≥MR),"[4]; refractory status IMiD, Example 2a, 27 evaluable",(52) %
same,CRR (≥MR),[4]; [13],(100) %
same,ORR (≥PR),[4]; [13],(100) %
same,CRR (≥MR),[4]; [14],(44) %
same,ORR (≥PR),[4]; [14],(33) %
same,CRR (≥MR),"[4]; refractory status PI + IMiD, Example 2a, 27 evaluable",(44) %
same,CRR (≥MR),"[4]; refractory status PI, Example 2a, 27 evaluable",(47) %
same,"Positive Response (PR), patients",[5],9
same,"Progressive Disease (PD), patients",[5],8

# Reference: patent US20220047507A1, “MELFLUFEN DOSAGE REGIMENS FOR CANCER” (ONCOPEPTIDES AB, priority 2015, published 2022)
